# Assay results taken from patent EP1953147A1, “HETEROCYCLIC COMPOUND AND MEDICINAL APPLICATION THEREOF” (priority 2005, dated 2007).
# Tested on: ΔG/SEAP/HCV E1E2
# Assay: Effect of test substance on cell infection with HCV pseudotype virus (SEAP reporter assay in HepG2 cells)
# Type: cell-based
# Conditions: Hepatitis C virus
row,Structure (SMILES),IC50
1,"O=C(O)c1ccc(-c2nn(-c3cc(N4CC[C@H](O)C4)ccc3C(F)(F)F)c(=O)c3c2CCC3)cc1 [Example 80, 4-{3-[5-((S)-3-hydroxy-pyrrolidin-1-yl)-2-trifluoromethyl-phenyl]-4-oxo-4,5,6,7-tetrahydro-3H-cyclopenta[d]pyridazin-1-yl}-benzoic acid]",0.1 to 10 µM
2,"O=c1c2c(c(-c3ccc(F)cc3)nn1-c1cc(N3CC[C@H](O)C3)ccc1C(F)(F)F)CCC2 [Example 76, 4-(4-fluoro-phenyl)-2-[5-((S)-3-hydroxy-pyrrolidin-1-yl)-2-trifluoromethyl-phenyl]-2,5,6,7-tetrahydro-cyclopenta[d]pyridazin-1-one]",< 0.1 µM
3,"COc1cc(OC)cc(-c2nn(-c3cc(N4CCCC4)ccc3C(F)(F)F)c(=O)c3c2CCN3)c1 [Example 37, 4-(3,5-dimethoxy-phenyl)-6-(5-pyrrolidin-1-yl-2-trifluoromethyl-phenyl)-1,2,3,6-tetrahydro-pyrrolo[2,3-d]pyridazin-7-one]",< 0.1 µM
4,"COc1cc(OC)cc(-c2nn(-c3cc(N4CC[C@H](O)C4)ccc3C(F)(F)F)c(=O)c3c2OCC3)c1 [Example 1-35, 7-(3,5-dimethoxy-phenyl)-5-[5-((S)-3-hydroxy-pyrrolidin-1-yl)-2-trifluoromethyl-phenyl]-3,5-dihydro-2H-furo[2,3-d]pyridazin-4-one]",< 0.1 µM
5,"COC(=O)CCNc1ccc(C(F)(F)F)c(-n2nc(-c3cc(OC)cc(OC)c3)c3c(c2=O)CCC3)c1 [Example 143, 3-{3-[4-(3,5-dimethoxy-phenyl)-1-oxo-1,5,6,7-tetrahydro-cyclopenta[d]pyridazin-2-yl]-4-trifluoromethyl-phenylamino}-propionic acid methyl ester]",< 0.1 µM
6,"COC(=O)CN1CCc2c(-c3cc(OC)cc(OC)c3)nn(-c3cc(N4CC[C@H](O)C4)ccc3C(F)(F)F)c(=O)c21 [Example 26, {4-(3,5-dimethoxy-phenyl)-6-[5-((S)-3-hydroxy-pyrrolidin-1-yl)-2-trifluoromethyl-phenyl]-7-oxo-2,3,6,7-tetrahydro-pyrrolo[2,3-d]pyridazin-1-yl}-acetic acid methyl ester]",< 0.1 µM
7,"COc1cc(OC)cc(-c2nn(-c3cc(N4CC[C@H](O)C4)ccc3S(C)(=O)=O)c(=O)c3c2CCC3)c1 [Example 38, 4-(3,5-dimethoxy-phenyl)-2-[5-((S)-3-hydroxy-pyrrolidin-1-yl)-2-methanesulfonyl-phenyl]-2,5,6,7-tetrahydro-cyclopenta[d]pyridazin-1-one]",< 0.1 µM
8,"CC(=O)N[C@@H]1CCN(c2ccc(C(F)(F)F)c(-n3nc(-c4cc(C)cc(C)c4)c4c(c3=O)N(CC(N)=O)CC4)c2)C1 [Example 1-27, {6-[5-((R)-3-acetylamino-pyrrolidin-1-yl)-2-trifluoromethyl-phenyl]-4-(3,5-dimethyl-phenyl)-7-oxo-2,3,6,7-tetrahydro-pyrrolo[2,3-d]pyridazin-1-yl}-acetamide]",< 0.1 µM
9,"COc1cc(OC)cc(-c2nn(-c3cc(N4CC[C@H](O)C4)ccc3C(F)(F)F)c(=O)c3c2CCCN3CCO)c1 [Example 1-39, 5-(3,5-dimethoxy-phenyl)-1-(2-hydroxy-ethyl)-7-[5-((S)-3-hydroxy-pyrrolidin-1-yl)-2-trifluoromethylphenyl]-1,3,4,7-tetrahydro-2H-pyrido[2,3-d]pyridazin-8-one]",< 0.1 µM
10,"COC(=O)CCNc1ccc(C(F)(F)F)c(-n2nc(-c3cc(OC)cc(OC)c3)c3c(c2=O)NCC3)c1 [Example 47, 3-{3-[4-(3,5-dimethoxy-phenyl)-7-oxo-1,2,3,7-tetrahydro-pyrrolo[2,3-d]pyridazin-6-yl]-4-trifluoromethyl-phenylamino}-propionic acid methyl ester]",< 0.1 µM
11,"COc1cc(OC)cc(-c2nn(-c3cc(NCCCO)ccc3C(F)(F)F)c(=O)c3c2CCC3)c1 [Example 130, 4-(3,5-dimethoxy-phenyl)-2-[5-(3-hydroxy-propylamino)-2-trifluoromethyl-phenyl]-2,5,6,7-tetrahydro-cyclopenta[d]pyridazin-1-one]",< 0.1 µM
12,"CCc1ccc(C(F)(F)F)c(-n2nc(-c3cc(OC)cc(OC)c3)c3c(c2=O)CCC3)c1 [Example 89, 4-(3,5-dimethoxy-phenyl)-2-(5-ethyl-2-trifluoromethyl-phenyl)-2,5,6,7-tetrahydro-cyclopenta[d]pyridazin-1-one]",< 0.1 µM
13,"COc1cc(OC)cc(-c2nn(-c3cc(N4CC[C@H](O)C4)ccc3C(F)(F)F)c(=O)c3c2CCC3)c1 [Example 9, 4-(3,5-dimethoxy-phenyl)-2-[5-((S)-3-hydroxy-pyrrolidin-1-yl)-2-trifluoromethyl-phenyl]-2,5,6,7-tetrahydro-cyclopenta[d]pyridazin-1-one]",< 0.1 µM
14,"COc1cc(OC)cc(-c2nn(-c3cc(N4CC(CO)C4)ccc3C(F)(F)F)c(=O)c3c2CCN3)c1 [Example 1-42, 4-(3,5-dimethoxy-phenyl)-6-[5-(3-hydroxymethyl-azetidin-1-yl)-2-trifluoromethyl-phenyl]-1,2,3,6-tetrahydro-pyrrolo[2,3-d]pyridazin-7-one]",< 0.1 µM
15,"Cc1cc(-c2cnco2)cc(-c2nn(-c3cc(N4CC[C@H](O)C4)ccc3C(F)(F)F)c(=O)c3c2CCC3)c1 [Example 2, 2-[5-((S)-3-hydroxy-pyrrolidin-1-yl)-2-trifluoromethyl-phenyl]-4-(3-methyl-5-oxazol-5-yl-phenyl)-2,5,6,7-tetrahydro-cyclopenta[d]pyridazin-1-one]",< 0.1 µM
16,"O=c1c2c(c(-c3ccccc3Br)nn1-c1cc(N3CC[C@H](O)C3)ccc1C(F)(F)F)CCC2 [Example 104, 4-(2-bromo-phenyl)-2-[5-((S)-3-hydroxy-pyrrolidin-1-yl)-2-trifluoromethyl-phenyl]-2,5,6,7-tetrahydro-cyclopenta[d]pyridazin-1-one]",0.1 to 10 µM
17,"COc1cc(OC)cc(-c2nn(-c3cc(-c4cccnn4)ccc3C(F)(F)F)c(=O)c3c2CC(C)N3)c1 (stereo not shown) [Example 19, 4-(3,5-dimethoxy-phenyl)-2-methyl-6-(5-pyridazin-3-yl-2-trifluoromethyl-phenyl)-1,2,3,6-tetrahydro-pyrrolo[2,3-d]pyridazin-7-one]",< 0.1 µM
18,"CN(C)c1ccc(-c2nn(-c3cc(N4CC[C@H](O)C4)ccc3C(F)(F)F)c(=O)c3c2CCC3)cc1 [Example 112, 4-(4-dimethylamino-phenyl)-2-[5-((S)-3-hydroxy-pyrrolidin-1-yl)-2-trifluoromethyl-phenyl]-2,5,6,7-tetrahydro-cyclopenta[d]pyridazin-1-one]",< 0.1 µM
19,"CN(C)c1cccc(-c2nn(-c3cc(N4CC[C@H](O)C4)ccc3C(F)(F)F)c(=O)c3c2CCC3)c1 [Example 85, 4-(3-dimethylamino-phenyl)-2-[5-((S)-3-hydroxy-pyrrolidin-1-yl)-2-trifluoromethyl-phenyl]-2,5,6,7-tetrahydro-cyclopenta[d]pyridazin-1-one]",< 0.1 µM
20,"COc1cc(OC)cc(-c2nn(-c3cc(N(C)C)ccc3C(F)(F)F)c(=O)c3c2CCC3)c1 [Example 81, 4-(3,5-dimethoxy-phenyl)-2-(5-dimethylamino-2-trifluoromethyl-phenyl)-2,5,6,7-tetrahydro-cyclopenta[d]pyridazin-1-one]",< 0.1 µM
21,"COc1cncc(-c2nn(-c3cc(N4CC[C@H](O)C4)ccc3C(F)(F)F)c(=O)c3c2CCN3C(N)=O)c1 [Example 1-29, 6-[5-((S)-3-hydroxy-pyrrolidin-1-yl)-2-trifluoromethylphenyl]-4-(5-methoxy-pyridin-3-yl)-7-oxo-2,3,6,7-tetrahydro-pyrrolo[2,3-d]pyridazine-1-carboxamide]",< 0.1 µM
22,"CCCN(C)c1ccc(C(F)(F)F)c(-n2nc(-c3cc(OC)cc(OC)c3)c3c(c2=O)CCC3)c1 [Example 101, 4-(3,5-dimethoxy-phenyl)-2-[5-(methyl-propylamino)-2-trifluoromethyl-phenyl]-2,5,6,7-tetrahydro-cyclopenta[d]pyridazin-1-one]",0.1 to 10 µM
23,"COc1cc(OC)cc(-c2nn(-c3cc(N4CC[C@H](O)C4)ccc3C(F)(F)F)c(=O)c3c2CCN3CCO)c1 [Example 29, 4-(3,5-dimethoxy-phenyl)-1-(2-hydroxy-ethyl)-6-[5-((S)-3-hydroxy-pyrrolidin-1-yl)-2-trifluoromethylphenyl]-1,2,3,6-tetrahydro-pyrrolo[2,3-d]pyridazin-7-one]",< 0.1 µM
24,"COc1cc(C)cc(-c2nn(-c3cc(N4CC[C@H](O)C4)ccc3C(F)(F)F)c(=O)c3c2CCN3)c1 [Example 14, 6-[5-((S)-3-hydroxy-pyrrolidin-1-yl)-2-trifluoromethyl-phenyl]-4-(3-methoxy-5-methyl-phenyl)-1,2,3,6-tetrahydro-pyrrolo[2,3-d]pyridazin-7-one]",< 0.1 µM
25,"COc1cc(OC)cc(-c2nn(-c3cc(NCCCNC(=O)OC(C)(C)C)ccc3C(F)(F)F)c(=O)c3c2CCC3)c1 [Example 129, (3-{3-[4-(3,5-dimethoxy-phenyl)-1-oxo-1,5,6,7-tetrahydro-cyclopenta[d]pyridazin-2-yl]-4-trifluoromethyl-phenylamino}-propyl)-carbamic acid tert-butyl ester]",< 0.1 µM
26,"O=c1c2c(c(-c3ccccc3O)nn1-c1cc(N3CC[C@H](O)C3)ccc1C(F)(F)F)CCC2 [Example 111, 4-(2-hydroxy-phenyl)-2-[5-((S)-3-hydroxy-pyrrolidin-1-yl)-2-trifluoromethyl-phenyl]-2,5,6,7-tetrahydro-cyclopenta[d]pyridazin-1-one]",0.1 to 10 µM
27,"CNC(=O)CN1CCc2c(-c3cc(OC)cc(OC)c3)nn(-c3cc(N4CC[C@H](O)C4)ccc3C(F)(F)F)c(=O)c21 [Example 31, 2-{4-(3,5-dimethoxy-phenyl)-6-[5-((S)-3-hydroxy-pyrrolidin-1-yl)-2-trifluoromethyl-phenyl]-7-oxo-2,3,6,7-tetrahydro-pyrrolo[2,3-d]pyridazin-1-yl}-N-methyl-acetamide]",< 0.1 µM
28,"COc1cncc(-c2nn(-c3cc(N4CC[C@H](O)C4)ccc3C(F)(F)F)c(=O)c3c2CCC3)c1 [Example 45, 2-[5-((S)-3-hydroxy-pyrrolidin-1-yl)-2-trifluoromethyl-phenyl]-4-(5-methoxy-pyridin-3-yl)-2,5,6,7-tetrahydro-cyclopenta[d]pyridazin-1-one]",< 0.1 µM
